Results: PMC12653048 (2025)

Tests used:
[1] = system: s12_13_82m7 (DNA, aptamer) GCGCGATCAAGGTCGGAGCGTTTTCGCGGAGTCGGCTGGATCGCGC; assay: ITC; conditions: 50 mM Na+, 3 mM Mg2+; BB: 20 mM Tris-acetate, pH 7.4, 25 °C
[2] = system: s12_13_82 (DNA, aptamer) ATACCAGCTTATTCAATTCAGGGCGGTATGAGGCTCGATCAAGGTCGGAGCGAGAATTTTTTCGCGGAGTCGGCTGGATCAGATAGTAAGTGCAATCT; assay: ITC; conditions: 50 mM Na+, 3 mM Mg2+; BB: 20 mM Tris-acetate, pH 7.4, 25 °C
[3] = system: s12_13_82m6 (DNA, aptamer) GCGCGATCAAGGTCGGAGCGCAGTTGCGGAGTCGGCTGGATCGCGC; assay: ITC; conditions: 50 mM Na+, 3 mM Mg2+; BB: 20 mM Tris-acetate, pH 7.4, 25 °C
[4] = system: s25_Kana6-5 (DNA, aptamer) GACGACGCAGTTGGCTTAGCGTAGGTAAAGGTCGATGTCGTC; assay: CD spectroscopy; conditions: 300 mM Na acetate, 10 mM Mg2+, 5 mM K+; SB3: 50 mM MES-NaOH, pH 7.0, 25 °C; 2 μM aptamer, 20 μM KANA
[5] = system: s12_13_82m8 (DNA, aptamer) GCGATCAAGGTCGGAGCGTTTTCGCGAGTCGGCTGGATCGC; assay: ITC; conditions: 50 mM Na+, 3 mM Mg2+; BB: 20 mM Tris-acetate, pH 7.4, 25 °C
[6] = system: s12_13_82m5 (DNA, aptamer) GCGATCAAGGTCGGAGCGAGTTCGCGGAGTCGGCTGGATCGC; assay: ITC; conditions: 50 mM Na+, 3 mM Mg2+; BB: 20 mM Tris-acetate, pH 7.4, 25 °C
[7] = system: s21_K16 (DNA, aptamer) CGCATACCAGCTTAGTTCAGAATTCATTGGAGCGTGGCGTGGATGCCCGATGAACCGCCCCAGGGTGCAGATAGTAAGTGCAATCTCGGC; assay: ITC; conditions: 100 mM Na acetate, 2 mM Mg2+, 5 mM K+, 1 mM Ca2+; SB2: 20 mM Tris-acetate, pH 7.6, 25 °C; 30 μM aptamer, 350 μM KANA in syringe; KD above 300 μM undetectable
[8] = system: s25_Kana6-1 (DNA, aptamer) GACGACGAGGGCCTGAAACTTGCTGGAACGGTTAAAGTCGTC; assay: CD spectroscopy; conditions: 300 mM Na acetate, 10 mM Mg2+, 5 mM K+; SB3: 50 mM MES-NaOH, pH 7.0, 25 °C; 2 μM aptamer, 20 μM KANA
[9] = system: s12_13_82 (DNA, aptamer) ATACCAGCTTATTCAATTCAGGGCGGTATGAGGCTCGATCAAGGTCGGAGCGAGAATTTTTTCGCGGAGTCGGCTGGATCAGATAGTAAGTGCAATCT; assay: CD spectroscopy; conditions: 50 mM Na acetate, 3 mM Mg2+; BB: 20 mM Tris-acetate, pH 7.4, 25 °C; 2 μM aptamer, 20 μM KANA
[10] = system: s12_13_82m2 (DNA, aptamer) GCGATCAAGGTCGGAGCGAGAATTTTTTCGCGGAGTCGGCTGGATCGC; assay: ITC; conditions: 50 mM Na+, 3 mM Mg2+; BB: 20 mM Tris-acetate, pH 7.4, 25 °C
[11] = system: s25_Kana6-5 (DNA, aptamer) GACGACGCAGTTGGCTTAGCGTAGGTAAAGGTCGATGTCGTC; assay: ITC; conditions: 300 mM Na acetate, 10 mM Mg2+, 5 mM K+; SB3: 50 mM MES-NaOH, pH 7.0, 25 °C
[12] = system: s12_13_82m1 (DNA, aptamer) GATCAAGGTCGGAGCGAGAATTTTTTCGCGGAGTCGGCTGGATC; assay: ITC; conditions: 50 mM Na+, 3 mM Mg2+; BB: 20 mM Tris-acetate, pH 7.4, 25 °C
[13] = system: s25_Kana6-1 (DNA, aptamer) GACGACGAGGGCCTGAAACTTGCTGGAACGGTTAAAGTCGTC; assay: ITC; conditions: 300 mM Na acetate, 10 mM Mg2+, 5 mM K+; SB3: 50 mM MES-NaOH, pH 7.0, 25 °C
[14] = system: s11_Kana2 (DNA, aptamer) CACCTAATACGACTCACTATAGCGGATCCGAAGATGGGGGTTGAGGCTAAGCCGACCGTAAGTTGGGCCGTCTGGCTCGAACAAGCTTGC; assay: ITC; conditions: 50 mM Na acetate, 5 mM K+, 5 mM Mg2+; SB1: 20 mM Tris-acetate, pH 8.0, 25 °C; 20.8 μM aptamer, 300 μM KANA in syringe; KD above 200 μM undetectable
[15] = system: s21_K16 (DNA, aptamer) CGCATACCAGCTTAGTTCAGAATTCATTGGAGCGTGGCGTGGATGCCCGATGAACCGCCCCAGGGTGCAGATAGTAAGTGCAATCTCGGC; assay: CD spectroscopy; conditions: 100 mM Na acetate, 2 mM Mg2+, 5 mM K+, 1 mM Ca2+; SB2: 20 mM Tris-acetate, pH 7.6, 25 °C; 2 μM aptamer, 20 μM KANA

binding [1]	binding [2]	KD [3] [mM]	binding [4]	KD [5] [mM]	KD [6] [mM]	binding [7]	binding [8]	binding [9]	KD [10] [mM]	KD [11] [nM]	KD [12] [nM]	KD [1] [mM]	KD [2] [mM]	KD [13] [nM]	binding [14]	binding [15]	SMILES
no	no	–	–	–	–	–	–	–	–	–	–	–	–	–	–	–	NC[C@@H]1O[C@H](O[C@H]2[C@@H](O)[C@H](O[C@@H]3[C@@H](O)[C@H](N)C[C@H](N)[C@H]3O[C@H]3O[C@H](CN)[C@@H](O)[C@H](O)[C@H]3N)O[C@@H]2CO)[C@H](N)[C@@H](O)[C@@H]1O
no	no	–	–	–	–	–	–	–	–	–	–	–	–	–	–	–	CN[C@@H]1[C@H](O[C@H]2[C@H](O[C@H]3[C@H](O)[C@@H](O)[C@H](N=C(N)N)[C@@H](O)[C@@H]3N=C(N)N)O[C@@H](C)[C@]2(O)C=O)O[C@@H](CO)[C@H](O)[C@H]1O
–	–	0.000519 ± 4.84e-05	yes	0.0022 ± 0.000352	0.000106 ± 8.7e-06	no	yes	yes	0.000101 ± 8e-06	870 ± 40	96 ± 8.7	0.000109 ± 1.49e-05	0.00047 ± 4e-05	2230 ± 240	no	no	NC[C@H]1O[C@H](O[C@H]2[C@H](O)[C@@H](O[C@H]3O[C@H](CO)[C@@H](O)[C@H](N)[C@H]3O)[C@H](N)C[C@@H]2N)[C@H](O)[C@@H](O)[C@@H]1O
